Experimental data reported in US12370192B2, “Azole-fused pyridazin-3(2H)-one derivatives” (TAKEDA PHARMACEUTICAL COMPANY LIMITED, priority 2019, dated 2025).

Key:
[1] = biological target: T1, human GPR139 receptor (Homo sapiens, UniProt Q6DWJ6); test: GPR139 Competition Binding (membrane-based, tritium-labeled ligand); conditions: T-REx-CHO membranes with human GPR139; 6.5 nM tritium-labeled ligand; 11-point curve, 30 μM maximum concentration; read-out: GPR139 Binding Affinity (pKi) (converted)
T1 construct: expressed in transfected cells; host or cells: T-REx-CHO (Thermo Fisher Scientific), doxycycline-induced
T1 sequence (Q6DWJ6 1-353): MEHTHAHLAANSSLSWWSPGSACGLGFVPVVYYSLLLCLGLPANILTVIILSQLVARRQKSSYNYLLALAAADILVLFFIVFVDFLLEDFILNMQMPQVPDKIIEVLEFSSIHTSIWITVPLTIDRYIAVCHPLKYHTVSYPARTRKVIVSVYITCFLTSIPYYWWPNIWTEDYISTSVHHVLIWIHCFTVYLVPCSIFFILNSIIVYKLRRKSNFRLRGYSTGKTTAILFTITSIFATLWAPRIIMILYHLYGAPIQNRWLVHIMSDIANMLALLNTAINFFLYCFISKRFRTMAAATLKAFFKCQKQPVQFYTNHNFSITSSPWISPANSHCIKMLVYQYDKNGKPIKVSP
Outline: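 Membranes came from doxycycline-induced T-REx-CHO cells expressing human GPR139. They were incubated 20 min at room temperature with 6.5 nM tritiated ligand and compound (11 points, top 30 μM) in HEPES pH 7.3 buffer with MgCl2/CaCl2. Filter-bound counts gave Ki by four-parameter fit, reported as pKi.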

[2] = biological target: T1, human GPR139 receptor; test: Measurement of GPR139 Activation Via Calcium Signaling (FLIPR, T-REx-CHO cells); assay type: cell-based; conditions: T-REx-CHO cells stably expressing human GPR139, 11-point dose response, 10 μM maximum concentration, read-out: GPR139 Potency (pEC50) (converted)
Outline: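 T-REx-CHO cells stably carrying human GPR139 under tetracycline control, induced with 2 μg/mL doxycycline for 17 h at 37 °C, loaded 40 min with Calcium 5 dye plus probenecid in HBSS/HEPES pH 7.4. Agonist added as 11-point series (10 μM top); fluorescence read 1 min; pEC50 from four-parameter fit.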

Row | Compound | Ki [1] [nM] | EC50 [2] [nM]
1 | Cc1ccc([C@H](C)NC(=O)Cn2ncc3c(c(C)nn3C3CC3)c2=O)cc1 [Example 122, (S)-2-(1-cyclopropyl-3-methyl-4-oxo-1,4-dihydro-5H-pyrazolo[3,4-d]pyridazin-5-yl)-N-(1-(p-tolyl)ethyl)acetamide] | 245 | 83.2
2 | COc1ccc([C@H](C)NC(=O)Cn2nc(C)c3c(c(C)nn3C)c2=O)cc1 [Example 123, (S)—N-(1-(4-methoxyphenyl)ethyl)-2-(1,3,7-trimethyl-4-oxo-1,4-dihydro-5H-pyrazolo[3,4-d]pyridazin-5-yl)acetamide] | 1450 | 2140
3 | Cc1ccc([C@H](C)NC(=O)Cn2ncc3c(c(C4CC4)nn3C)c2=O)c(F)c1 [Example 124, (S)-2-(3-cyclopropyl-1-methyl-4-oxo-1,4-dihydro-5H-pyrazolo[3,4-d]pyridazin-5-yl)-N-(1-(2-fluoro-4-methylphenyl)ethyl)acetamide] | 7.08 | 60.3
4 | Cc1nn(C)c2cnn(CC(=O)N[C@@H](C)c3c(F)cccc3F)c(=O)c12 [Example 126, (S)—N-(1-(2,6-difluorophenyl)ethyl)-2-(1,3-dimethyl-4-oxo-1,4-dihydro-5H-pyrazolo[3,4-d]pyridazin-5-yl)acetamide] | 955 | 324
5 | COc1ccc([C@H](C)NC(=O)Cn2ncc3c(c(C)nn3C3CC3)c2=O)c(F)c1 [Example 127, (S)-2-(1-cyclopropyl-3-methyl-4-oxo-1,4-dihydro-5H-pyrazolo[3,4-d]pyridazin-5-yl)-N-(1-(2-fluoro-4-methoxyphenyl)ethyl)acetamide] | 933 | 25.7
6 | Cc1nn(C2CC2)c2cnn(CC(=O)N[C@@H](C)c3ccc(F)cc3F)c(=O)c12 [Example 128, (S)-2-(1-cyclopropyl-3-methyl-4-oxo-1,4-dihydro-5H-pyrazolo[3,4-d]pyridazin-5-yl)-N-(1-(2,4-difluorophenyl)ethyl)acetamide] | 257 | 67.6
7 | COc1ccc([C@H](C)NC(=O)Cn2ncc3c(c(C)nn3C3CC3)c2=O)cc1F [Example 129, (S)-2-(1-cyclopropyl-3-methyl-4-oxo-1,4-dihydro-5H-pyrazolo[3,4-d]pyridazin-5-yl)-N-(1-(3-fluoro-4-methoxyphenyl)ethyl)acetamide] | 724 | 53.7
8 | Cc1ccc([C@H](C)NC(=O)Cn2ncc3c(c(C)nn3C3CC3)c2=O)cc1F [Example 130, (S)-2-(1-cyclopropyl-3-methyl-4-oxo-1,4-dihydro-5H-pyrazolo[3,4-d]pyridazin-5-yl)-N-(1-(3-fluoro-4-methylphenyl)ethyl)acetamide] | 38 | 17.8
9 | Cc1nn(C2CC2)c2cnn(CC(=O)N[C@@H](C)c3ccc(F)cc3Cl)c(=O)c12 [Example 131, (S)—N-(1-(2-chloro-4-fluorophenyl)ethyl)-2-(1-cyclopropyl-3-methyl-4-oxo-1,4-dihydro-5H-pyrazolo[3,4-d]pyridazin-5-yl)acetamide] | 42.7 | 41.7
10 | COc1cc([C@H](C)NC(=O)Cn2ncc3c(c(C)nn3C3CC3)c2=O)ccc1F [Example 132, (S)-2-(1-cyclopropyl-3-methyl-4-oxo-1,4-dihydro-5H-pyrazolo[3,4-d]pyridazin-5-yl)-N-(1-(4-fluoro-3-methoxyphenyl)ethyl)acetamide] | 2240 | 708
11 | Cc1nn(C2CC2)c2cnn(CC(=O)N[C@@H](C)c3c(F)cc(F)cc3F)c(=O)c12 [Example 133, (S)-2-(1-cyclopropyl-3-methyl-4-oxo-1,4-dihydro-5H-pyrazolo[3,4-d]pyridazin-5-yl)-N-(1-(2,4,6-trifluorophenyl)ethyl)acetamide] | 316 | 295
12 | Cc1cc([C@H](C)NC(=O)Cn2ncc3c(c(C)nn3C3CC3)c2=O)ccc1F [Example 134, (S)-2-(1-cyclopropyl-3-methyl-4-oxo-1,4-dihydro-5H-pyrazolo[3,4-d]pyridazin-5-yl)-N-(1-(4-fluoro-3-methylphenyl)ethyl)acetamide] | 589 | 24
13 | Cc1nn(C2CC2)c2cnn(CC(=O)N[C@@H](C)c3cc(F)cc(F)c3)c(=O)c12 [Example 135, (S)-2-(1-cyclopropyl-3-methyl-4-oxo-1,4-dihydro-5H-pyrazolo[3,4-d]pyridazin-5-yl)-N-(1-(3,5-difluorophenyl)ethyl)acetamide] | 132 | 14.1
14 | Cc1nn(C2CC2)c2cnn(CC(=O)N[C@@H](C)c3c(F)cccc3Cl)c(=O)c12 [Example 136, (S)—N-(1-(2-chloro-6-fluorophenyl)ethyl)-2-(1-cyclopropyl-3-methyl-4-oxo-1,4-dihydro-5H-pyrazolo[3,4-d]pyridazin-5-yl)acetamide] | 81.3 | 91.2
15 | Cc1nn(CC(=O)N[C@@H](C)c2ccc(C(F)(F)F)cn2)c(=O)c2ncn(C)c12 [Example 137, (S)-2-(1,7-dimethyl-4-oxo-1,4-dihydro-5H-imidazo[4,5-d]pyridazin-5-yl)-N-(1-(5-(trifluoromethyl)pyridin-2-yl)ethyl)acetamide] | 30200 | 2630
16 | Cc1ccc([C@H](C)NC(=O)Cn2ncc3ncn(C)c3c2=O)cc1 [Example 138, (S)-2-(3-methyl-4-oxo-3,4-dihydro-5H-imidazo[4,5-d]pyridazin-5-yl)-N-(1-(p-tolyl)ethyl)acetamide] | 30200 | 363
17 | Cc1ccc([C@H](C)NC(=O)Cn2ncc3c(ncn3C)c2=O)cc1 [Example 140, (S)-2-(1-methyl-4-oxo-1,4-dihydro-5H-imidazo[4,5-d]pyridazin-5-yl)-N-(1-(p-tolyl)ethyl)acetamide] | 30200 | 525

Next, values leading:

Row | Ki [1] [nM] | EC50 [2] [nM] | Compound
18 | 23.4 | 69.2 | Cc1nn(CC(=O)N[C@@H](C)c2ccc(OC(F)(F)F)cc2)c(=O)c2c(C3CC3)nn(C)c12 [Example 118, (S)-2-(3-cyclopropyl-1,7-dimethyl-4-oxo-1,4-dihydro-5H-pyrazolo[3,4-d]pyridazin-5-yl)-N-(1-(4-(trifluoromethoxy)phenyl)ethyl)acetamide]
19 | 7.94 | 33.9 | Cc1ccc([C@H](C)NC(=O)Cn2nc(C)c3c(c(C4CC4)nn3C)c2=O)cc1 [Example 119, (S)-2-(3-cyclopropyl-1,7-dimethyl-4-oxo-1,4-dihydro-5H-pyrazolo[3,4-d]pyridazin-5-yl)-N-(1-(p-tolyl)ethyl)acetamide]
20 | 17.4 | 182 | Cc1nn(CC(=O)N[C@@H](C)c2ccc(C(F)(F)F)cc2)c(=O)c2c(C3CC3)nn(C)c12 [Example 120, (S)-2-(3-cyclopropyl-1,7-dimethyl-4-oxo-1,4-dihydro-5H-pyrazolo[3,4-d]pyridazin-5-yl)-N-(1-(4-(trifluoromethyl)phenyl)ethyl)acetamide]
21 | 74.1 | 129 | COc1ccc([C@H](C)NC(=O)Cn2nc(C)c3c(c(C4CC4)nn3C)c2=O)cc1 [Example 121, (S)-2-(3-cyclopropyl-1,7-dimethyl-4-oxo-1,4-dihydro-5H-pyrazolo[3,4-d]pyridazin-5-yl)-N-(1-(4-methoxyphenyl)ethyl)acetamide]
22 | 47.9 | 123 | C[C@H](NC(=O)Cn1ncc2c(c(C3CC3)nn2C)c1=O)c1ccc(OC(F)(F)F)cc1 [Example 125, (S)-2-(3-cyclopropyl-1-methyl-4-oxo-1,4-dihydro-5H-pyrazolo[3,4-d]pyridazin-5-yl)-N-(1-(4-(trifluoromethoxy)phenyl)ethyl)acetamide]
23 | 3800 | 257 | C[C@H](NC(=O)Cn1ncc2ncn(C)c2c1=O)c1ccc(C(F)(F)F)cc1 [Example 139, (S)-2-(3-methyl-4-oxo-3,4-dihydro-5H-imidazo[4,5-d]pyridazin-5-yl)-N-(1-(4-(trifluoromethyl)phenyl)ethyl)acetamide]
24 | 5890 | 457 | C[C@H](NC(=O)Cn1ncc2c(ncn2C)c1=O)c1ccc(C(F)(F)F)cc1 [Example 141, (S)-2-(1-methyl-4-oxo-1,4-dihydro-5H-imidazo[4,5-d]pyridazin-5-yl)-N-(1-(4-(trifluoromethyl)phenyl)ethyl)acetamide]
25 | 229 | 95.5 | C[C@H](NC(=O)Cn1ncc2c(C3CC3)nn(C)c2c1=O)c1ccc(C(F)(F)F)cc1 [Example 142, (S)-2-(3-cyclopropyl-1-methyl-7-oxo-1,7-dihydro-6H-pyrazolo[3,4-d]pyridazin-6-yl)-N-(1-(4-(trifluoromethyl)phenyl)ethyl)acetamide]
26 | 178 | 117 | C[C@H](NC(=O)Cn1ncc2c(C3CC3)nn(C)c2c1=O)c1ccc(OC(F)(F)F)cc1 [Example 143, (S)-2-(3-cyclopropyl-1-methyl-7-oxo-1,7-dihydro-6H-pyrazolo[3,4-d]pyridazin-6-yl)-N-(1-(4-(trifluoromethoxy)phenyl)ethyl)acetamide]
